Measured values reported in patent US4340595A, “Aminopropanol derivatives of 6-hydroxy-2,3,4,5-tetrahydro-1H-1-benzazepin-2-one and pharmaceutical formulations containing the said compounds” (BASF Aktiengesellschaft, priority 1978, dated 1982).
Counter-ions that a name gives are not always drawn. Like-named read-outs stand apart in the source and are kept apart here.

How the values were obtained:
[1] = system: isoproterenol-induced tachycardia; experiment: β-sympatholytic action in cats: inhibition of isoproterenol-induced tachycardia; type: in vivo, cat (male and female, mongrels); conditions: for ED (50-60%): Felis catus, hexobarbital narcosis; for ED (50-60%) / factor by which the dose required for 50-60% inhibition is lower than the corresponding dose of propranolol, intraduodenal / % inhibition of isoproterenol-induced tachycardia, intraduodenal administration / factor by which the dose required is lowered compared with propranolol, intravenous / % inhibition of isoproterenol-induced tachycardia, intravenous administration: cats; for factor by which the dose required for 50-60% inhibition is lower than the corresponding dose of propranolol, intraduodenal: enteral (intraduodenal) administration; for factor by which the dose required for 50-60% inhibition is lower than the corresponding dose of propranolol, intraduodenal / factor by which the dose required is lowered compared with propranolol, intravenous: vs propranolol; for % inhibition of isoproterenol-induced tachycardia, intraduodenal administration: at the mg/kg dose of the same line (E3); for factor by which the dose required is lowered compared with propranolol, intravenous: intravenous administration; for % inhibition of isoproterenol-induced tachycardia, intravenous administration: at the mg/kg dose of the same line (E1)
Procedure: (§1) The β-sympatholytic action was tested on cats and dogs. The comparative compound used was the conventional β-sympatholytic agent propranolol. The isoproterenol-induced tachycardia model was used for the test.
Isoproterenol (1 μg/kg, administered intravenously) produces increases in heart rate averaging 61±2.4 beats/min. in cats (male and female, mongrels, weighing 1.7 to 4.0 kg) narcotized with hexobarbital (200 mg/kg administered intramuscularly). β-Sympatholytic agents inhibit this tachycardia. Isoproterenol was injected before, and 10 minutes after, the intravenous administration, or 30 minutes after the intraduodenal administration, of the test substances. The doses which inhibit the isoproterenol-induced tachycardia by 50-60% were determined.

[2] = system: isoproterenol-induced tachycardia; experiment: β-sympatholytic action in conscious dogs: inhibition of isoproterenol-induced tachycardia; type: in vivo, dog; conditions: for ED50: Canis lupus familiaris, 10 min, read-out: ED 50% (dose which inhibits the isoproterenol-induced tachycardia by 50%)
Procedure: as §1
Isoproterenol was administered before and 10 minutes after the intravenous administration of the test substances.

[3] = acute toxicity, intraperitoneal administration to mice; parameters: species or system mouse (NMRI, female); conditions: mouse, in vivo, ip, Probit analysis
[4] = 10 min, intravenous, isoproterenol 1 μg/kg i.v. 10 minutes after test substance, read-out: dose inhibiting isoproterenol-induced tachycardia by 50-60%, intravenous administration
[5] = 0.5 h, intraduodenal, isoproterenol 1 μg/kg i.v. 30 minutes after test substance, read-out: dose inhibiting isoproterenol-induced tachycardia by 50-60%, intraduodenal administration

SMILES	ED (50-60%) [1, 4] [mg/kg]	ED (50-60%) [1, 5] [mg/kg]	factor by which the dose required for 50-60% inhibition is lower than the corresponding dose of propranolol, intraduodenal [1]	% inhibition of isoproterenol-induced tachycardia, intraduodenal administration ([1]; intraduodenal) [%]	factor by which the dose required is lowered compared with propranolol, intravenous [1]	% inhibition of isoproterenol-induced tachycardia, intravenous administration ([1]; intravenous) [%]	increase in heart rate produced by isoproterenol ([1]; cats narcotized with hexobarbital, 1 μg/kg intravenously) [beats/min.]	increase in heart rate caused by isoproterenol ([2]; conscious dogs, 1 μg/kg intravenously)	ED50 ([2]; conscious dogs, intravenous, isoproterenol 1 μg/kg i.v.) [mg/kg]	times as active as propranolol (ED 50%) ([2]; conscious dogs, intravenous, vs propranolol) [times]	LD50 at 24 h [3] [mg/kg]	ED50 ([2]; iv) [mg/kg]
CC(C)NCC(O)COc1cccc2c1CCCC(=O)N2 (centres unmarked) [Example 1, 6-(2-hydroxy-3-isopropylaminopropoxy)-2,3,4,5-tetrahydro-1H-1-benzazepin-2-one]	0.215	0.464	2	56	2	59	–	–	–	–	–	–
CC(C)NCC(O)c1ccc(O)c(O)c1 (centres unmarked) [Isoproterenol, reference compound]	–	–	–	–	–	–	61±2.4	about 100 beats/min.	–	–	–	–
CC(C)(C)NCC(O)COc1cccc2c1CCCC(=O)N2 (centres unmarked) [Example 2, 6-(2-hydroxy-3-tert.-butylaminopropoxy)-2,3,4,5-tetrahydro-1H-1-benzazepin-2-one hydrochloride]	0.0215	0.215	4.7	52	4.7	57	–	–	0.0043	24	237	–
CC(C)NCC(O)COc1cccc2ccccc12 (centres unmarked) [Propranolol, reference compound]	–	–	–	57	–	52	–	–	–	–	–	0.1
